Columns and labels:
Details in all cases: exposure time: 72 h
[1] = test system: E31 (patient-derived glioblastoma stem cells of proneural subtype); experiment: surviving fraction (nuclei count normalised to DMSO); higher = more cells surviving (less toxic)
[2] = test system: FT3469 (normal neural stem cell line); experiment: as above
[3] = test system: E34 (patient-derived glioblastoma stem cells of proneural subtype); experiment: as above
[4] = test system: E21 (patient-derived glioblastoma stem cells of mesenchymal subtype); experiment: as above
[5] = test system: E28 (patient-derived glioblastoma stem cells of classical subtype); experiment: as above
[6] = test system: E57 (patient-derived glioblastoma stem cells of mesenchymal subtype); experiment: as above
[7] = test system: E13 (patient-derived glioblastoma stem cells of classical subtype); experiment: as above
[8] = test system: E31; experiment: phenotypic distance (Euclidean, principal components) from DMSO controls (arbitrary units); higher = stronger morphological change
[9] = test system: FT3469; experiment: as above
[10] = test system: E34; experiment: as above
[11] = test system: E21; experiment: as above
[12] = test system: E28; experiment: as above
[13] = test system: E57; experiment: as above
[14] = test system: E13; experiment: as above
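For phenotypic distance (Euclidean, principal components) from DMSO controls in this document: cell Painting imaging in 384-well plates, CellProfiler features reduced to at least 20 principal components, Euclidean distance versus same-plate DMSO vehicle wells (0.1% v/v), median over six images per well.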
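For surviving fraction (nuclei count normalised to DMSO) in this document: nuclei counted by high-content imaging of Hoechst-stained cells in laminin-coated 384-well plates, relative to 0.1% DMSO vehicle wells, with staurosporine as cell-death control.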

`COc1cc2c[n+](C)c3c4cc5c(cc4ccc3c2cc1OC)OCO5` [Nitidine chloride] gave a surviving fraction ([1]; 4.1 nM) of 0.905, a surviving fraction ([1]; 12.3 nM) of 1.08 and a surviving fraction ([1]; 37 nM) of 0.804. The surviving fraction ([1]; 111.1 nM) was 0.738, the surviving fraction ([1]; 333.3 nM) was 0.582 and the surviving fraction ([1]; 1000 nM) was 0.599. The surviving fraction ([1]; 3000 nM) was 0.19, the surviving fraction ([2]; 4.1 nM) was 0.854 and the surviving fraction ([2]; 12.3 nM) was 0.86. For the same compound, the surviving fraction ([2]; 37 nM) was 0.854, the surviving fraction ([2]; 111.1 nM) was 0.752 and the surviving fraction ([2]; 333.3 nM) was 0.679. It also gave a surviving fraction ([2]; 1000 nM) of 0.646, a surviving fraction ([2]; 3000 nM) of 0.601 and a surviving fraction ([3]; 4.1 nM) of 1.08. It also gave a surviving fraction ([3]; 12.3 nM) of 1.06, a surviving fraction ([3]; 37 nM) of 0.769 and a surviving fraction ([3]; 111.1 nM) of 1.08. It also gave a surviving fraction ([3]; 333.3 nM) of 0.743, a surviving fraction ([3]; 1000 nM) of 0.706 and a surviving fraction ([3]; 3000 nM) of 0.559. For the same compound, the surviving fraction ([4]; 4.1 nM) was 0.997, the surviving fraction ([4]; 12.3 nM) was 0.869 and the surviving fraction ([4]; 37 nM) was 0.959. It also gave a surviving fraction ([4]; 111.1 nM) of 0.703, a surviving fraction ([4]; 333.3 nM) of 0.302 and a surviving fraction ([4]; 1000 nM) of 0.295. For the same compound, the surviving fraction ([4]; 3000 nM) was 0.066, the surviving fraction ([5]; 4.1 nM) was 0.955 and the surviving fraction ([5]; 12.3 nM) was 0.92. The surviving fraction ([5]; 37 nM) was 0.878, the surviving fraction ([5]; 111.1 nM) was 0.754 and the surviving fraction ([5]; 333.3 nM) was 0.506. The surviving fraction ([5]; 1000 nM) was 0.575, the surviving fraction ([5]; 3000 nM) was 0.216 and the surviving fraction ([6]; 4.1 nM) was 0.996. For the same compound, the surviving fraction ([6]; 12.3 nM) was 0.919, the surviving fraction ([6]; 37 nM) was 0.965 and the surviving fraction ([6]; 111.1 nM) was 0.946. For the same compound, the surviving fraction ([6]; 333.3 nM) was 0.91, the surviving fraction ([6]; 1000 nM) was 0.923 and the surviving fraction ([6]; 3000 nM) was 0.216. The surviving fraction ([7]; 4.1 nM) was 1.02, the surviving fraction ([7]; 12.3 nM) was 0.937 and the surviving fraction ([7]; 37 nM) was 1.01. The surviving fraction ([7]; 111.1 nM) was 1.01, the surviving fraction ([7]; 333.3 nM) was 0.836 and the surviving fraction ([7]; 1000 nM) was 0.752. The surviving fraction ([7]; 3000 nM) was 0.397, the phenotypic distance ([8]; 4.1 nM) was 0.468 and the phenotypic distance ([8]; 12.3 nM) was 0.762. For the same compound, the phenotypic distance ([8]; 37 nM) was 0.828, the phenotypic distance ([8]; 111.1 nM) was 1.43 and the phenotypic distance ([8]; 333.3 nM) was 1.85. The phenotypic distance ([8]; 1000 nM) was 2.23, the phenotypic distance ([8]; 3000 nM) was 3.9 and the phenotypic distance ([9]; 4.1 nM) was 0.874. The phenotypic distance ([9]; 12.3 nM) was 0.863, the phenotypic distance ([9]; 37 nM) was 0.732 and the phenotypic distance ([9]; 111.1 nM) was 1.27. For the same compound, the phenotypic distance ([9]; 333.3 nM) was 2.17, the phenotypic distance ([9]; 1000 nM) was 2.35 and the phenotypic distance ([9]; 3000 nM) was 2.82. For the same compound, the phenotypic distance ([10]; 4.1 nM) was 0.655, the phenotypic distance ([10]; 12.3 nM) was 0.652 and the phenotypic distance ([10]; 37 nM) was 0.901. It also gave a phenotypic distance ([10]; 111.1 nM) of 1.63, a phenotypic distance ([10]; 333.3 nM) of 1.88 and a phenotypic distance ([10]; 1000 nM) of 2.46. It also gave a phenotypic distance ([10]; 3000 nM) of 3.01, a phenotypic distance ([11]; 4.1 nM) of 0.786 and a phenotypic distance ([11]; 12.3 nM) of 0.739. It also gave a phenotypic distance ([11]; 37 nM) of 1.02, a phenotypic distance ([11]; 111.1 nM) of 1.99 and a phenotypic distance ([11]; 333.3 nM) of 3.87. For the same compound, the phenotypic distance ([11]; 1000 nM) was 4.46, the phenotypic distance ([11]; 3000 nM) was 5.64 and the phenotypic distance ([12]; 4.1 nM) was 0.661. The phenotypic distance ([12]; 12.3 nM) was 0.746, the phenotypic distance ([12]; 37 nM) was 1.02 and the phenotypic distance ([12]; 111.1 nM) was 1.34. The phenotypic distance ([12]; 333.3 nM) was 2.74, the phenotypic distance ([12]; 1000 nM) was 2.93 and the phenotypic distance ([12]; 3000 nM) was 3.24. It also gave a phenotypic distance ([13]; 4.1 nM) of 0.377, a phenotypic distance ([13]; 12.3 nM) of 0.436 and a phenotypic distance ([13]; 37 nM) of 0.309. The phenotypic distance ([13]; 111.1 nM) was 0.645, the phenotypic distance ([13]; 333.3 nM) was 1.22 and the phenotypic distance ([13]; 1000 nM) was 1.25. For the same compound, the phenotypic distance ([13]; 3000 nM) was 7, the phenotypic distance ([14]; 4.1 nM) was 0.679 and the phenotypic distance ([14]; 12.3 nM) was 2.36. The phenotypic distance ([14]; 37 nM) was 0.78, the phenotypic distance ([14]; 111.1 nM) was 0.431 and the phenotypic distance ([14]; 333.3 nM) was 1.36. It also gave a phenotypic distance ([14]; 1000 nM) of 1.35 and a phenotypic distance ([14]; 3000 nM) of 4.56.
